Measured values published in US8106055B2, “Substituted amide compounds” (Gruenenthal GmbH, priority 2007, dated 2012).

Target: T1, human μ opiate receptor (Homo sapiens, UniProt P35372)
T1 construct: purchased PerkinElmer Life Sciences, Zaventem, Belgium RB-HOM; host or cells: CHO-K1 cells (membrane preparation)
Test: Affinity for the human μ opiate receptor ([3H]-naloxone displacement, CHO-K1 receptor membrane preparation, SPA)
Type: binding
Settings: 1.5 h, Table 2; test concentration 1 μM; read-out: μ receptor
Method in brief: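 Readout is percent displacement of [3H]-naloxone (1 nmol/l) from human μ receptor in CHO-K1 membranes, measured at 1 μmol/l compound. Incubation runs 90 minutes at room temperature with WGA-SPA beads in Tris-HCl/BSA buffer; non-specific binding is defined with 100 μmol/l naloxone.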

T1 sequence (P35372 whole entry): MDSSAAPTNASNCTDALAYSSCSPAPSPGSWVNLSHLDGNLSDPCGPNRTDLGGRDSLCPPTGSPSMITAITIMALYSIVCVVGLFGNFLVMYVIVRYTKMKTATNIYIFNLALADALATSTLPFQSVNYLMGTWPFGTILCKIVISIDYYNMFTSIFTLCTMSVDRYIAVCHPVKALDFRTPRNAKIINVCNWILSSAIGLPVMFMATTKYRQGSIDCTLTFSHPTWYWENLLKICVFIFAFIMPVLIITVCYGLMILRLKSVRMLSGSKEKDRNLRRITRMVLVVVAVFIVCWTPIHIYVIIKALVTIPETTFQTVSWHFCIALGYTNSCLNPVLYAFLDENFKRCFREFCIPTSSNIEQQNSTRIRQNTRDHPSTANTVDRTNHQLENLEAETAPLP

| SMILES | inhibition at 1 µM [%] |
| --- | --- |
| CN(C)C(c1ccccc1)C1CCC(NC(=O)COCC2CCCN2S(=O)(=O)c2c(Cl)cc(Cl)cc2Cl)CC1 (stereo not drawn) [Example 611, N-[4-(Dimethylaminophenylmethyl)-cyclohexyl]-2-[1-(2,4,6-trichlorobenzenesulfonyl)-pyrrolidin-2-ylmethoxy]-acetamide] | 93 |

Same assay, conditions: Table 2; test concentration 1 μM

| SMILES | μ receptor [% inhibition] |
| --- | --- |
| CN(C)C(c1ccccc1)C1CCC(NC(=O)COCC2CCCN2S(=O)(=O)c2c(Cl)cc(Cl)cc2Cl)CC1 (stereo not drawn) [Example 612, N-[4-(Dimethylaminophenylmethyl)-cyclohexyl]-2-[1-(2,4,6-trichlorobenzenesulfonyl)-pyrrolidin-2-ylmethoxy]-acetamide] | 88 |

Same assay, conditions: test concentration of 1 μM

| SMILES | μ (binding on the μ opioid receptor, % inhibition) [%] |
| --- | --- |
| CN(C)C(c1cccc(F)c1)C1CCC(CNC(=O)COCC2CCCN(S(=O)(=O)c3ccccc3)C2)CC1 (stereo not drawn) [Example 220] | 73 |
| Cc1ccc(S(=O)(=O)N(C)CCOCC(=O)NC2CCC(C(c3cccs3)N(C)C)CC2)cc1 (stereo not drawn) [Example 168, N-(4-((dimethylamino) (thiophen-2-yl)methyl)cyclohexyl)-2-(2-(N,4-dimethylphenylsulfamido)ethoxy)acetamide] | 83 |
| CN(C)C(c1cccc(F)c1)C1CCC(CCNC(=O)COCCN(C)S(=O)(=O)c2ccc(F)cc2)CC1 (stereo not drawn) [Example 218] | 82 |
| COc1ccc(S(=O)(=O)N2Cc3ccccc3CC2COCC(=O)NC2CCC(C(c3ccc(F)cc3)N(C)C)CC2)cc1 (stereo not drawn) [Example 234] | 76 |
| Cc1ccc(S(=O)(=O)N(C)CCOCC(=O)NCC2CCC(C(c3cccc(F)c3)N(C)C)CC2)cc1 (stereo not drawn) [Example 227] | 77 |
| COc1ccc(S(=O)(=O)N2CCCCC2CCOCC(=O)NCCC2CCC(C(c3cccc(F)c3)N(C)C)CC2)cc1 (stereo not drawn) [Example 213] | 87 |
| COc1cc(C)c(S(=O)(=O)N2CCC(OCC(=O)NCC3CCC(C(c4cccc(F)c4)N(C)C)CC3)C2)c(C)c1 (stereo not drawn) [Example 265] | 79 |
| CN(C)C(c1ccc(Cl)cc1)C1CCC(CCNC(=O)COCCN(C)S(=O)(=O)c2c(Cl)cccc2Cl)CC1 (stereo not drawn) [Example 274] | 68 |
| COc1cc(C)c(S(=O)(=O)N2CCCC(OCC(=O)NCCC3CCC(C(c4cccc(F)c4)N(C)C)CC3)C2)c(C)c1C (stereo not drawn) [Example 221] | 82 |
| CCN(CCOCC(=O)NCCC1CCC(C(c2cccc(F)c2)N(C)C)CC1)S(=O)(=O)c1c(C)cc(OC)c(C)c1C (stereo not drawn) [Example 209] | 85 |
| CN(C)C(c1cccc(F)c1)C1CCC(NC(=O)COC2CCN(S(=O)(=O)c3ccccc3)C2)CC1 (stereo not drawn) [Example 271] | 72 |
| COc1ccc(S(=O)(=O)N2CCCCC2COCC(=O)NC2CCC(C(c3cccc(F)c3)N(C)C)CC2)cc1 (stereo not drawn) [Example 255] | 72 |
| CN(C)C(c1cccc(F)c1)C1CCC(NC(=O)COCCN(C)S(=O)(=O)c2ccc(Cl)cc2Cl)CC1 (stereo not drawn) [Example 217] | 89 |
| CN(C)C(c1ccc(Cl)cc1)C1CCC(CCNC(=O)COCCN(C)S(=O)(=O)c2ccc(F)cc2)CC1 (stereo not drawn) [Example 241] | 67 |
| COc1ccc(S(=O)(=O)N2CCCCC2COCC(=O)NC2CCC(C(c3cccs3)N(C)C)CC2)cc1OC (stereo not drawn) [Example 261] | 72 |
| CN(C)C(c1cccs1)C1CCC(CCNC(=O)COC2CCCCC2N(C)S(=O)(=O)c2ccc(Cl)c(Cl)c2)CC1 (stereo not drawn) [Example 214] | 85 |
| COc1cc(C)c(S(=O)(=O)N(C)CCOCC(=O)NC2CCC(C(c3ccccc3)N(C)C)CC2)c(C)c1 (stereo not drawn) [Example 239] | 38 |
| CN(C)C(c1cccs1)C1CCC(CNC(=O)COC2CCN(S(=O)(=O)c3ccccc3)CC2)CC1 (stereo not drawn) [Example 276] | 78 |
| COc1cc(C)c(S(=O)(=O)N(C)CCOCC(=O)NC2CCC(C(c3cccc(F)c3)N(C)C)CC2)c(C)c1 (stereo not drawn) [Example 228] | 76 |
